Values of other authors as cited in PubChem BioAssay AID1259409 (Chemical Carcinogenesis Research Information System (CCRIS), 2018).
Where “and” joins values, the source holds several entries; their conditions need not be identical. Equal values may be shown once.

Test system: rodent chemically induced tumor inhibition, incidence and multiplicity
Experiment: CCRIS tumor inhibitor studies
Conditions: Carcinogen: N-NITROBIS(2-OXOPROPYL)AMINE, 60559-38-4, Route [Inhibitor]: ORAL, Species: HAMSTER, Promoter: NONE USED

Q: What does the source list for `CC1=C(/C=C/C(C)=C/C=C/C(C)=C/C(=O)Nc2ccccc2)C(C)(C)CCC1`?
A: tumour outcome (control, treated, inhibition, significance) (Dose [Inhibitor]: 0.5 OR 1.0 MMOL/KG DIET DAILY STARTING 1 WK AFTER CARCINOGEN TREATMENT AND CONTINUING THROUGH THE END OF THE STUDY (STUD, Strain/Sex: SYRIAN/FEMALE, Target Tissue: Type of Lesion: PANCREAS: DUCTULAR ADENOMA, Dose [Carcinogen]: 10 MG/KG BW ONCE): 5/23 (22%), 11/25 (44%), -100%, not significant; tumour outcome (control, treated, inhibition, significance) (Dose [Inhibitor]: 0.5 OR 1.0 MMOL/KG DIET DAILY STARTING 1 WK AFTER CARCINOGEN TREATMENT AND CONTINUING THROUGH THE END OF THE STUDY (STUD, Strain/Sex: SYRIAN/FEMALE, Target Tissue: Type of Lesion: PANCREAS: DUCTULAR ADENOMA, Dose [Carcinogen]: 40 MG/KG BW ONCE): 12/20 (60%), 18/26 (69%), -15%, not significant; tumour outcome (control, treated, inhibition, significance) (Dose [Inhibitor]: 0.5 OR 1.0 MMOL/KG DIET DAILY STARTING 1 WK AFTER CARCINOGEN TREATMENT AND CONTINUING THROUGH THE END OF THE STUDY (STUD, Strain/Sex: SYRIAN/FEMALE, Target Tissue: Type of Lesion: PANCREAS: DUCTULAR CARCINOMA, Dose [Carcinogen]: 10 MG/KG BW ONCE): 6/23 (27%), 2/25 (8%), 70%, not significant; tumour outcome (control, treated, inhibition, significance) (Dose [Inhibitor]: 0.5 OR 1.0 MMOL/KG DIET DAILY STARTING 1 WK AFTER CARCINOGEN TREATMENT AND CONTINUING THROUGH THE END OF THE STUDY (STUD, Strain/Sex: SYRIAN/MALE, Target Tissue: Type of Lesion: LIVER: BENIGN TUMOR, Dose [Carcinogen]: 40 MG/KG BW ONCE): 4/20 (20%), 12/26 (46%), -130%, not significant and 5/24 (21%), 17/39 (44%), -110%, p<0.05; tumour outcome (control, treated, inhibition, significance) (Dose [Inhibitor]: 0.5 OR 1.0 MMOL/KG DIET DAILY STARTING 1 WK AFTER CARCINOGEN TREATMENT AND CONTINUING THROUGH THE END OF THE STUDY (STUD, Strain/Sex: SYRIAN/MALE, Target Tissue: Type of Lesion: PANCREAS: DUCTULAR ADENOMA, Dose [Carcinogen]: 10 MG/KG BW ONCE): 3/22 (14%), 14/31 (45%), -221%, p<0.05; tumour outcome (control, treated, inhibition, significance) (Dose [Inhibitor]: 0.5 OR 1.0 MMOL/KG DIET DAILY STARTING 1 WK AFTER CARCINOGEN TREATMENT AND CONTINUING THROUGH THE END OF THE STUDY (STUD, Strain/Sex: SYRIAN/MALE, Target Tissue: Type of Lesion: PANCREAS: DUCTULAR ADENOMA, Dose [Carcinogen]: 40 MG/KG BW ONCE): 8/24 (33%), 19/37 (51%), -55%, not significant; tumour outcome (control, treated, inhibition, significance) (Dose [Inhibitor]: 0.5 OR 1.0 MMOL/KG DIET DAILY STARTING 1 WK AFTER CARCINOGEN TREATMENT AND CONTINUING THROUGH THE END OF THE STUDY (STUD, Strain/Sex: SYRIAN/MALE, Target Tissue: Type of Lesion: PANCREAS: DUCTULAR CARCINOMA, Dose [Carcinogen]: 10 MG/KG BW ONCE): 4/22 (18%), 3/31 (10%), 44%, not significant; tumour outcome (control, treated, inhibition, significance) (Dose [Inhibitor]: 0.5 OR 1.0 MMOL/KG DIET DAILY STARTING 1 WK AFTER CARCINOGEN TREATMENT AND CONTINUING THROUGH THE END OF THE STUDY (STUD, Strain/Sex: SYRIAN/MALE, Target Tissue: Type of Lesion: PANCREAS: DUCTULAR CARCINOMA, Dose [Carcinogen]: 40 MG/KG BW ONCE): 5/24 (21%), 15/37 (40%), -90%, not significant; tumour outcome (control, treated, inhibition, significance) (Dose [Inhibitor]: 0.5 OR 1 MMOL/KG DIET DAILY STARTING 1 WK AFTER CARCINOGEN TREATMENT AND CONTINUING THROUGH THE END OF THE STUDY (STUDY, Strain/Sex: SYRIAN/FEMALE, Target Tissue: Type of Lesion: PANCREAS: DUCTULAR CARCINOMA, Dose [Carcinogen]: 40 MG/KG BW ONCE): 6/20 (30%), 7/26 (27%), 10%, not significant; tumour outcome (control, treated, inhibition, significance) (Dose [Inhibitor]: 0.5 OR 1.0 MMOL/KG/D IN DIET STARTING 1 WK AFTER CARCINOGEN TREATMENT AND CONTINUING THROUGH THE END OF THE STUDY (STUDY, Strain/Sex: SYRIAN/FEMALE, Target Tissue: Type of Lesion: LIVER: BENIGN TUMOR, Dose [Carcinogen]: 40 MG/KG BW ONCE): 4/20 (20%), 12/26 (46%), -130%, not significant; tumour outcome (control, treated, inhibition, significance) (Dose [Inhibitor]: 0.5 OR 1.0 MMOL/KG/D IN DIET STARTING 1 WK AFTER CARCINOGEN TREATMENT AND CONTINUING THROUGH THE END OF THE STUDY (STUDY, Strain/Sex: SYRIAN/FEMALE, Target Tissue: Type of Lesion: PANCREAS: DUCTULAR ADENOMA, Dose [Carcinogen]: 10 MG/KG BW ONCE): 5/23 (22%), 11/25 (44%), -100%, not significant; tumour outcome (control, treated, inhibition, significance) (Dose [Inhibitor]: 0.5 OR 1.0 MMOL/KG/D IN DIET STARTING 1 WK AFTER CARCINOGEN TREATMENT AND CONTINUING THROUGH THE END OF THE STUDY (STUDY, Strain/Sex: SYRIAN/FEMALE, Target Tissue: Type of Lesion: PANCREAS: DUCTULAR ADENOMA, Dose [Carcinogen]: 40 MG/KG BW ONCE): 12/20 (60%), 18/26 (69%), -15%, not significant; tumour outcome (control, treated, inhibition, significance) (Dose [Inhibitor]: 0.5 OR 1.0 MMOL/KG/D IN DIET STARTING 1 WK AFTER CARCINOGEN TREATMENT AND CONTINUING THROUGH THE END OF THE STUDY (STUDY, Strain/Sex: SYRIAN/FEMALE, Target Tissue: Type of Lesion: PANCREAS: DUCTULAR CARCINOMA, Dose [Carcinogen]: 10 MG/KG BW ONCE): 6/23 (27%), 2/25 (8%), 70%, not significant; tumour outcome (control, treated, inhibition, significance) (Dose [Inhibitor]: 0.5 OR 1.0 MMOL/KG/D IN DIET STARTING 1 WK AFTER CARCINOGEN TREATMENT AND CONTINUING THROUGH THE END OF THE STUDY (STUDY, Strain/Sex: SYRIAN/FEMALE, Target Tissue: Type of Lesion: PANCREAS: DUCTULAR CARCINOMA, Dose [Carcinogen]: 40 MG/KG BW ONCE): 6/20 (30%), 7/26 (27%), 10%, not significant; tumour outcome (control, treated, inhibition, significance) (Dose [Inhibitor]: 0.5 OR 1.0 MMOL/KG/D IN DIET STARTING 1 WK AFTER CARCINOGEN TREATMENT AND CONTINUING THROUGH THE END OF THE STUDY (STUDY, Strain/Sex: SYRIAN/MALE, Target Tissue: Type of Lesion: LIVER: BENIGN TUMOR, Dose [Carcinogen]: 40 MG/KG BW ONCE): 5/24 (21%), 17/39 (44%), -110%, p<0.05; tumour outcome (control, treated, inhibition, significance) (Dose [Inhibitor]: 0.5 OR 1.0 MMOL/KG/D IN DIET STARTING 1 WK AFTER CARCINOGEN TREATMENT AND CONTINUING THROUGH THE END OF THE STUDY (STUDY, Strain/Sex: SYRIAN/MALE, Target Tissue: Type of Lesion: PANCREAS: DUCTULAR ADENOMA, Dose [Carcinogen]: 10 MG/KG BW ONCE): 3/22 (14%), 14/31 (45%), -221%, p<0.05; tumour outcome (control, treated, inhibition, significance) (Dose [Inhibitor]: 0.5 OR 1.0 MMOL/KG/D IN DIET STARTING 1 WK AFTER CARCINOGEN TREATMENT AND CONTINUING THROUGH THE END OF THE STUDY (STUDY, Strain/Sex: SYRIAN/MALE, Target Tissue: Type of Lesion: PANCREAS: DUCTULAR ADENOMA, Dose [Carcinogen]: 40 MG/KG BW ONCE): 8/24 (33%), 19/37 (51%), -55%, not significant; tumour outcome (control, treated, inhibition, significance) (Dose [Inhibitor]: 0.5 OR 1.0 MMOL/KG/D IN DIET STARTING 1 WK AFTER CARCINOGEN TREATMENT AND CONTINUING THROUGH THE END OF THE STUDY (STUDY, Strain/Sex: SYRIAN/MALE, Target Tissue: Type of Lesion: PANCREAS: DUCTULAR CARCINOMA, Dose [Carcinogen]: 10 MG/KG BW ONCE): 4/22 (18%), 3/31 (10%), 44%, not significant; tumour outcome (control, treated, inhibition, significance) (Dose [Inhibitor]: 0.5 OR 1.0 MMOL/KG/D IN DIET STARTING 1 WK AFTER CARCINOGEN TREATMENT AND CONTINUING THROUGH THE END OF THE STUDY (STUDY, Strain/Sex: SYRIAN/MALE, Target Tissue: Type of Lesion: PANCREAS: DUCTULAR CARCINOMA, Dose [Carcinogen]: 40 MG/KG BW ONCE): 5/24 (21%), 15/37 (40%), -90%, not significant
